The structures appear in SMILES notation. Values joined by “and” are separate entries in the source; they are usually repeats but may differ in a detail not shown here. Equal entries are not always repeated. Active and inactive are the calls of the source. The calls are words filed in the database; no cut-off is given here.

For one experiment, the system named is Rattus norvegicus. Nature of the experiment: Anticonvulsant activity in rats using MES (maximal electroshock) after subcutaneous administration; IA-Inactive up to dose of 50 mg/kg. The experiment is classed as functional, organism-based. The arrangement: dose 50 mg/kg.
Conditions: not given
As for `CCN(CC)CCOCCNC(=O)C1(c2ccccc2)CCCCC1`, the ED50 result is “inactive”.

With `CCN(CC)CCOCCNC(=O)C1(c2ccccc2)CCCC1`, the ED50 result was “inactive”.

Turning to `CCN(CC)CCOCCNCC1(c2ccccc2)CCCC1`, the ED50 result is “inactive”.

Turning to `CCN(CC)CCOCCN(C)CC1(c2ccccc2)CCCC1`, the ED50 entry is “inactive”.

`CCN(CC)CCOCCNCC1(c2ccccc2)CCCCC1`: the ED50 result is “inactive”.

A further experiment deals with Rattus norvegicus. In words: Anticonvulsant activity in rats, using MES(maximal electroshock), after subcutaneous administration. It counts as functional. To be noted: sc.
Turning to `CCN(CC)CCOCCOCC1(c2ccccc2)CCCCC1`, it took a dose of 86 µmol/kg to reach the 50% effect level (ED50).

On to `O=C1NC(=O)C(c2ccccc2)(c2ccccc2)N1` [PHENYTOIN], for which the ED50 was determined as 30 µmol/kg.

Another experiment has as its system Rattus norvegicus. In words: Anticonvulsant activity in rats using MES (maximal electroshock) after subcutaneous administration. To be noted: sc. The experiment is classed as functional.
On to `CCN(CC)CCOCCOCC1(c2ccccc2)CCCC1`, for which the ED50 was 7 mg/kg and 16 µmol/kg.

As to `CCN(CC)CCOCCOC(=O)C1(c2ccccc2)CCCC1` [CARBETAPENTANE], the 50% effective dose (ED50) is 25 mg/kg and 48 µmol/kg.

With `CCN(CC)CCOCCOCC1(c2ccccc2)CCCCC1`, it took a dose of 37 mg/kg to reach the 50% effect level (ED50).

For the compound `O=C1NC(=O)C(c2ccccc2)(c2ccccc2)N1` [PHENYTOIN], it took a dose of 8 mg/kg to reach the 50% effect level (ED50).

As to `CCN(CC)CCOCCOC(=O)C1(c2ccccc2)CCCCC1`, the median effective dose (ED50) is 93 mg/kg and 173 µmol/kg.

The values above are taken from ChEMBL document CHEMBL1125783, “Novel 1-phenylcycloalkanecarboxylic acid derivatives as potential anticonvulsant agents” (1991).
